The values below come from US5264586A, “Analogs of calicheamicin gamma1I, method of making and using the same” (priority 1992, dated 1993).

Assay [1] has as its system ATCC P-388 (Mouse leukemia). As to the kind of experiment: Sulforhodamine B cytotoxicity assay, P-388. It counts as cell-based. The conditions noted are these: SRB. The protocol: (§1) Sulfurodamine B Cytotoxicity Assay
(§2) Cytotoxicity assays using (-)-calicheamicinone were carried out as follows:
(§3) 1. Preparation of target cells in 96-well plates
(§4) g. Adjust volume of cell suspension with T.C. media to give a density of 1×10^5 cells/mL.
(§5) j. Incubate plates for 24 hours at 37° C., 5-10 percent CO2 in a humidified incubator.
(§6) a. Stock drug solutions were prepared by dissolving drug in the appropriate solvent (determined during chemical characterization studies) and sterile filtering the drug-solvent solution through a sterile 0.2 μ filter unit. An aliquot was taken from each filtered drug solution and the O.D. was measured to determine the drug concentration.
(§7) b. Dilute the stock drug solution prepared above with T.C. medium to the desired initial concentration (10^-2 -10^-4 M). A minimum volume of 220 μL of diluted drug is required per 96-well plate used in the assay.
(§8) b. Add 100 μL of the initial compound dilution to adjacent duplicate wells in Columns #2. (Four materials can be tested in duplicate per 96-well plate.)
(§9) d. Transfer 10 μL to the appropriate wells in Column #4 and continue to make 1:10 dilutions of compound across the plate through Column #12.
f. […]
(§10) g. Read plates on a microtiter plate reader at […].
(§11) IC50 values; i.e., the concentration of Compound required to kill one-half of the treated cells, were then calculated. […]
(In general: Sulforhodamine B stains cellular protein and so reports cell mass.)

The test system of assay [2] is ATCC Capan-1 (pancreatic carcinoma). The assay can be described thus: Sulforhodamine B cytotoxicity assay, Capan-1. It counts as cell-based. As to conditions: 72 hours, SRB. The protocol:
as §1, §2, §3, §4, §5, §6, §7, §8, §9
f. […]
as §10, §11

Assay [3] has as its system ATCC SK-MEL-28 (Melanoma). The assay can be described thus: Sulforhodamine B cytotoxicity assay, SK-MEL-28. It counts as cell-based. As to conditions: 72 hours, SRB. The protocol:
as §1, §2, §3, §4, §5, §6, §7, §8, §9
f. […]
as §10, §11

Assay [4] relates to NHDF (Normal human dermal fibroblast). The assay can be described thus: Sulforhodamine B cytotoxicity assay, NHDF. Type of assay: cell-based. The conditions noted are these: 72 hours, SRB. The protocol: as §1, §2, §3, §4, §5, §6, §7, §8, §9
f. […]
as §10, §11

For assay [5], the system named is ATCC Molt-4 (T-cell leukemia). As to the kind of experiment: Sulforhodamine B cytotoxicity assay, Molt-4. It counts as cell-based. The conditions noted are these: 72 hours, SRB. The protocol: as §1, §2, §3, §4, §5, §6, §7, §8, §9
f. […]
as §10, §11

Assay [6] concerns ATCC Ovcar 3 (Ovarian carcinoma). As to the kind of experiment: Sulforhodamine B cytotoxicity assay, Ovcar 3. It counts as cell-based. The conditions noted are these: 72 hours, SRB. The protocol:
as §1, §2, §3, §4, §5, §6, §7, §8, §9
f. […]
as §10, §11

The test system of assay [7] is ATCC MCF-7 (Breast carcinoma). The assay can be described thus: Sulforhodamine B cytotoxicity assay, MCF-7. It counts as cell-based. As to conditions: SRB. The protocol:
as §1, §2, §3, §4, §5, §6, §7, §8, §9
f. […]
as §10, §11

Assay [8] deals with ATCC HL-60 (promyeocytic leukemia). As to the kind of experiment: Sulforhodamine B cytotoxicity assay, HL-60. It counts as cell-based. The conditions noted are these: 72 hours, SRB. The protocol:
as §1, §2, §3, §4, §5, §6, §7, §8, §9
f. […]
as §10, §11

The test system of assay [9] is ATCC HT-29 (Colon carcinoma). The assay can be described thus: Sulforhodamine B cytotoxicity assay, HT-29. Type of assay: cell-based. As to conditions: 72 hours, SRB. The protocol: as §1, §2, §3, §4, §5, §6, §7, §8, §9
f. […]
as §10, §11

For assay [10], the system named is CHO (Chinese hampster ovary). As to the kind of experiment: Sulforhodamine B cytotoxicity assay, CHO. As to conditions: 72 hours, SRB. It counts as cell-based. The protocol:
as §1, §2, §3, §4, §5, §6, §7, §8, §9
f. […]
as §10, §11

A further assay relates to UCLA-P3 (lung carcinoma). The assay can be described thus: Sulforhodamine B cytotoxicity assay, UCLA-P3. The conditions noted are these: SRB. Type of assay: cell-based. The protocol:
as §1, §2, §3, §4, §5, §6, §7, §8, §9
f. […]
as §10, §11

In the next assay the test system is H-322 (lung carcinoma). As to the kind of experiment: Sulforhodamine B cytotoxicity assay, H-322. It counts as cell-based. As to conditions: NCI-H322, 72 hours, SRB. The protocol:
as §1, §2, §3, §4, §5, §6, §7, §8, §9
f. […]
as §10, §11

The test system of another assay is DNA. As to conditions: double stranded DNA; cited from earlier work.
In a further assay the test system is murine tumors. As to conditions: cited from earlier work.

As to `COC(=O)NC1=C2/C(=C\CSSSC)[C@](O)(C#C/C=C\C#C[C@@H]2O)CC1=O` [(-)-calicheamicinone, (-)-Calicheamicinone], the IC50 stood at 390 nM in assay [1] (72 hours); 3100 nM in assay [2]; 25000 nM in assay [3]; 13000 nM in assay [4]; 1 nM in [5]; 25000 nM in [6]. Further, the IC50 in assay [7] (72 hours) was 13000 nM; in [8], 200 nM; in assay [9], 28000 nM; in assay [10] it was 63000 nM; with UCLA-P3 (lung carcinoma) (72 hours), 25000 nM.
Consider `COc1cccc2c1C(=O)c1c(O)c3c(c(O)c1C2=O)C[C@@](O)(C(C)=O)C[C@@H]3O[C@H]1C[C@H](N)[C@H](O)[C@H](C)O1` [Daunomycin, daunomycin], for which the half-maximal inhibitory concentration (IC50) in [1] (Mus musculus, P388, 72 hours) was determined as 200 nM; in assay [2] (Homo sapiens) it was 780 nM; in the assay with H-322 (lung carcinoma), 1600 nM; in assay [3] (Homo sapiens), 1600 nM; in assay [4] (Homo sapiens), 390 nM; in [5] (Homo sapiens), 0.1 nM. Further, the IC50 in [6] (Homo sapiens) worked out at 390 nM; in [7] (Homo sapiens, MCF7, 72 hours), 390 nM; in [8] (Homo sapiens), 200 nM; in assay [9] (Homo sapiens), 1600 nM; in assay [10] it was 1600 nM; in the assay with UCLA-P3 (lung carcinoma) (Homo sapiens, UCLA P-3, 72 hours), 1600 nM.
Turning to `CCN[C@H]1CO[C@@H](O[C@H]2[C@H](O[C@H]3C#C/C=C\C#C[C@]4(O)CC(=O)C(NC(=O)OC)=C3/C4=C\CSSSC)O[C@H](C)[C@@H](NO[C@H]3C[C@H](O)[C@H](SC(=O)c4c(C)c(I)c(O[C@@H]5O[C@@H](C)[C@H](O)[C@@H](OC)[C@H]5O)c(OC)c4OC)[C@@H](C)O3)[C@@H]2O)C[C@@H]1OC` [calicheamicin], the “DNA cleavage site / sequence specificity” value in the assay with DNA is 5' side of a TCCT sequence. For the same molecule, the “optimal dose against murine tumors” value in the assay on murine tumors (murine tumors) is recorded as 0.5-1.5 microgram (μg) per kilogram (kg) of body weight. The “activity relative to adriamycin against murine tumors” value with murine tumors (vs adriamycin) is listed as “about 1000 -fold more active”.
Consider Neocarzinostatin, for which the “DNA cleavage site / sequence specificity” value in the assay with DNA is given as “sequence-specificity in its DNA cleavage”.

For orientation: IC50 means the concentration that inhibits the measured activity by half. Higher therefore signals lower potency.
